Measurements taken from patent publication US20100047227A1, “NOVEL ANTICANCER CATHEPSIN FORMULATIONS AND ANTICANCER AGENT FOR USE IN COMBINED ANTICANCER THERAPY” (priority 2006, published 2010).

Assays:
[1] = system: various human prostate cancer cell lines; assay: sensitivity of human prostate cancer cell lines to cathepsin E-induced apoptosis; format: cell-based
Experimental: (§1) The survival rate of cells was measured by Cell Counting Kit-8 in accordance with a manufacturer's manual. The method will be described briefly as follows. A 96-well (each 100 μl) plate was inoculated with cells (1×10^4 cells) and incubated for 24 hours, and the cells were incubated in a non-serum culture medium Opti-MEM together with a given concentration of each cathepsin purified from rat stomach (References #27 and #60-#62). Thereafter, the kit reagent (10 μl) was added to each well and the wells were incubated for another 1 hour. After incubation, each well was measured at the absorbance of 450 nm with a microplate reader.
In this assay, the cells to be tested were incubated to a ˜80% confluent state and then together with cathepsin E (100 μg/ml) or physiological saline at 37° C. and pH 7.4 for 20 hours, followed by measurements for the cell survival rate by a colorimetric assay. The cell survival rate is represented as a percentage of a corresponding value to the cells treated with physiological saline, and the data is represented as an average value±SD from the data obtained by four separate experiments. In this value, *p<0.001 represents a corresponding value to the cells treated with physiological saline. […] In this experiment, the cells were biotinylated with sulfo-NHS-SS-biotin as a […], decomposable reagent and lyzed, and the resulting cell lysate was incubated with streptoavidin-agarose beads at 4° C. for 2 hours. After the beads were washed, the related proteins were subjected to an immunoblot analysis using an anti-TRAIL antibody or an antibody to a TRAIL membrane-related receptor. The cell lysate portion was also subjected to a direct immunoblot analysis using an anti-β-actin antibody. As an alternative method, a culture medium of each cell line was immunoblot-analyzed using an anti-OPG antibody. […] Thereafter, the immunoblot was analyzed for its concentration in order to determine a quantity of a soluble TRAIL trimer. […]

[2] = system: human prostate epithelium (PrE) cells; assay: cell survival rate of normal human prostate epithelial cells; format: cell-based; conditions: 100 μg/ml, 37° C., pH 7.4, 20 hours
Experimental: as §1
In this assay, the cells to be tested were incubated to a ˜80% confluent state and then together with cathepsin E (100 μg/ml) or physiological saline at 37° C. and pH 7.4 for 20 hours, followed by measurements for the cell survival rate by a colorimetric assay. The cell survival rate is represented as a percentage of a corresponding value to the cells treated with physiological saline, and the data is represented as an average value±SD from the data obtained by four separate experiments. […] As an alternative method, a culture medium of each cell line was immunoblot-analyzed using an anti-OPG antibody. […] Thereafter, the immunoblot was analyzed for its concentration in order to determine a quantity of a soluble TRAIL trimer. […]

FasL = assay: ELISA of FasL in culture supernatant of ALVA-41 cells; format: cell-based, human; conditions: ALVA-41 cells treated with cathepsin E 100 μg/ml, 20 hours
Experimental: (§2) ALVA-41 cells (1×10^6 cells per a 6-cm dish) were incubated together with cathepsin E (100 μg/ml) in a non-serum culture medium Opti-MEM at 37° C. for 20 hours. The resulting culture supernatant was measured for amounts of TRAIL, FasL and TNF-α with ELSA kit in a manner as will be described briefly. A sample and a standard product (each 100 μl) were added to a microtiter plate immobilized with a monoclonal antibody to the corresponding member of the TNF family and incubated at room temperature for 2 hours. Then, the wells of the microtiter plate were washed four times with a washing buffer and 100 μl of biotin-conjugated monoclonal antibody was added to each wells of the plate, following by incubation at room temperature for 1 hour and washing the wells of the plate completely. Then, they were incubated together with 100 μl of streptoavidin-conjugated horseradish peroxidase at room temperature for 30 minutes and washed four times with a washing buffer. […] After an addition of a reaction terminating solution, the wells were measured at 450 nm with microreader.
(§3) In this experiment, the ALVA-41 cells were treated with cathepsin E (100 μg/ml) or physiological saline at 37° C. and pH 7.4 for 20 hours and measured for the amounts of TNF-α, FasL and TRAIL in the culture supernatant by ELSA. […] Apoptosis of the ALVA-41 cells was measured using the culture supernatant after immunoprecipitation. […]

TNF-α = assay: ELISA of TNF-α in culture supernatant of ALVA-41 cells; format: cell-based, human; conditions: ALVA-41 cells treated with cathepsin E 100 μg/ml, 20 hours
Experimental: as §2, §3

[3] = system: human prostate cancer ALVA-41 cells; assay: measurement for apoptosis (morphology, annexin V staining, TUNEL assay), ALVA-41 cells; format: cell-based; conditions: ALVA-41 cells
Experimental: The cells were measured for a morphological variation of apoptosis by phase contrast microscopy. The cells of prophase and post-phase apoptosis were detected by annexin V staining and TUNEL assay. In order to carry out the annexin V staining of ALVA-41 cells, the cells were exposed to cathepsin E or cathepsin L for 4 hours and centrifuged. After centrifugation, the separated cells were washed twice with PBS and incubated with fluorescein isothiocyanate-conjugated annexin V for 10 minutes at room temperature in a dark place. The cells that were positive as a result of the annexin V staining were then detected with fluorescence microscope. The TUNEL assay was carried out for the incubated tumor cells using Apop Tag Peroxidase Apoptosis Detection Kit and for heterografts using Tumor TACS In Situ Apoptosis Detection Kit.
In the figure, an indicating bar scale represents 50 μm. […] In the figure, an indicating bar scale represents 50 μm.

TRAIL = assay: ELISA of TRAIL in culture supernatant of ALVA-41 cells; format: cell-based, human; conditions: ALVA-41 cells treated with cathepsin E 100 μg/ml, 20 hours
Experimental: as §2, §3

cathepsin E
induction of apoptosis in human prostate cancer cell lines ([1]; 100 μg/ml, 37° C., pH 7.4, 20 hours): induced apoptosis for all cells | sensitivity as to cell survival effect, PC-3 cells relative to PPC-1 cells ([1]; PC-3 versus PPC-1): approximately 20 times | order of increasing sensitivity of cell lines to cathepsin E-induced apoptosis ([1]; PPC-1, DU145, ALVA-41, PC-3): PPC-1<DU145≦ALVA-41<PC-3 | influence upon survival and morphology of normal PrE cells [2]: little exerted influences upon the survival and morphology | FasL in culture supernatant (FasL): little detected | TNF-α in culture supernatant (TNF-α): little detected | staining with annexin V and TUNEL reagent ([3]; 50 μg/ml): positive | morphological changes of treated cells ([3]; microscopy, 100 μg/ml): morphological features of apoptosis | TRAIL in culture supernatant (TRAIL): apparently secreted
